Drawing on PubChem BioAssay (NCI), this text covers TGI and GI50 for twelve compounds.

The structures appear in SMILES notation.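 In this assay, cells in 96-well plates receive the compound at five concentrations for 48 hours. Endpoints are linearly interpolated between the surrounding concentrations. GI50 = concentration required for 50% inhibition of growth. TGI: total growth inhibition.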

Among the test systems are OVCAR-4 ovarian; T-47D breast; HOP-92 NSCLC; IGROV1 ovarian; NCI-H226 lung; SW-620 colon; COLO 205 colon.
Test in all cases: DTP human tumour cell line panel, 48 h

As for `CCCCOc1ccc(NC(N)=Nc2ccc(Cl)cc2)cc1`, the TGI was found to be 17.5 µM with OVCAR-4 ovarian; 18.9 µM in the experiment with T-47D breast; 16 µM in the experiment with HOP-92 NSCLC; 21.3 µM in the experiment on IGROV1 ovarian; 29 µM in the experiment with NCI-H226 lung; 16.1 µM with SW-620 colon. In the experiment on COLO 205 colon, the TGI was found to be 0.26 µM.

Take `COc1c2c(c3c(c1CCC(=O)O)OC(C)(C)C=C3)OC(C)(C)C=C2`: the TGI with OVCAR-4 ovarian, in the experiment on T-47D breast, in the experiment with IGROV1 ovarian, in the experiment on NCI-H226 lung, in the experiment on SW-620 colon and in the experiment on COLO 205 colon was more than 100 µM in each case.

On to `COC(=O)/C=C/C=C(c1ccccc1)c1ccccc1`, for which the GI50 in the experiment on OVCAR-4 ovarian was 8590 nM; with T-47D breast, 3160 nM; in the experiment with HOP-92 NSCLC it was 3520 nM; in the experiment on NCI-H226 lung, 14.3 µM; in the experiment with SW-620 colon, 3030 nM; in the experiment with COLO 205 colon, 3570 nM. Further, the TGI is more than 100 µM in the experiment with OVCAR-4 ovarian; more than 100 µM with T-47D breast; 38.8 µM in the experiment on HOP-92 NSCLC; more than 100 µM with NCI-H226 lung; more than 100 µM in the experiment on SW-620 colon; 13.9 µM in the experiment with COLO 205 colon.

Regarding `COc1cccc(/C=C/C(=O)c2cccc(Nc3nc(Nc4ccccc4)nc(Nc4ccccc4)n3)c2)c1`, the GI50 in the experiment with OVCAR-4 ovarian is 19500 nM; with T-47D breast, 6150 nM; with HOP-92 NSCLC, 1240 nM; in the experiment with IGROV1 ovarian, 5470 nM; in the experiment on NCI-H226 lung, 24.2 µM; in the experiment on SW-620 colon it was 3680 nM. The GI50 in the experiment on COLO 205 colon is 10500 nM. Also, the TGI in the experiment on OVCAR-4 ovarian was more than 100 µM; in the experiment on T-47D breast it was more than 79.8 µM; in the experiment on HOP-92 NSCLC, 50.5 µM; in the experiment on IGROV1 ovarian, 33.2 µM; in the experiment with NCI-H226 lung, more than 67.9 µM; in the experiment on SW-620 colon it was more than 48.3 µM. Moreover, the TGI in the experiment with COLO 205 colon was found to be 42.3 µM.

On to `CCNC(=O)Nc1ccccn1`, for which the TGI with OVCAR-4 ovarian, in the experiment on T-47D breast, with HOP-92 NSCLC, with IGROV1 ovarian, with NCI-H226 lung and in the experiment with SW-620 colon was more than 100 µM each time. Further, in the experiment on COLO 205 colon, the total growth inhibition concentration (TGI) is more than 100 µM.

For `Nc1c(C(=O)Nc2cccc([N+](=O)[O-])c2)sc2nc3c(cc12)C(O)CCC3` (centres undefined), the GI50 in the experiment with OVCAR-4 ovarian is more than 36200 nM; with T-47D breast it was 6590 nM; with HOP-92 NSCLC, 9540 nM; in the experiment with IGROV1 ovarian, 26000 nM; in the experiment with NCI-H226 lung it was 29.6 µM; in the experiment on SW-620 colon, 3480 nM. The GI50 in the experiment on COLO 205 colon was 3510 nM. The TGI in the experiment with OVCAR-4 ovarian was more than 100 µM; in the experiment on T-47D breast, more than 100 µM; in the experiment with HOP-92 NSCLC, more than 67 µM; in the experiment on IGROV1 ovarian it was more than 100 µM; with NCI-H226 lung, more than 100 µM; in the experiment on SW-620 colon, more than 100 µM. The compound also registered a TGI in the experiment on COLO 205 colon of more than 100 µM.

Regarding `CC1SC(c2c(Cl)cccc2Cl)N(NC(=O)c2[nH]c3ccc(F)cc3c2-c2ccccc2)C1=O` (centres undefined), the GI50 with OVCAR-4 ovarian is 1690 nM; in the experiment on T-47D breast, 2610 nM; in the experiment with IGROV1 ovarian, 2370 nM; in the experiment with SW-620 colon, 3190 nM; in the experiment on COLO 205 colon, 2690 nM. For the same compound, the TGI with OVCAR-4 ovarian came to 3.4 µM; in the experiment with T-47D breast, 14 µM; in the experiment with IGROV1 ovarian, 7.9 µM; in the experiment with SW-620 colon it was 11.2 µM; in the experiment on COLO 205 colon, 7.48 µM.

With `OC[C@@H](O)[C@H]1NC[C@@H](O)[C@H]1O`, the TGI in the experiment with OVCAR-4 ovarian, with HOP-92 NSCLC, in the experiment on IGROV1 ovarian, in the experiment with SW-620 colon and in the experiment on COLO 205 colon was more than 100 µM throughout.

With `C=C1C(=O)O[C@H]2[C@H]1CC/C(COC(=O)NCc1ccccc1OC)=C\CC[C@@]1(C)O[C@@H]21`, the GI50 in the experiment on OVCAR-4 ovarian was 1780 nM; in the experiment with T-47D breast, 2010 nM; in the experiment on HOP-92 NSCLC, 1490 nM; in the experiment with IGROV1 ovarian, 1570 nM; with NCI-H226 lung it was 2.11 µM; with SW-620 colon, 768 nM. Moreover, in the experiment on COLO 205 colon, the GI50 was 1750 nM. Also, the TGI with OVCAR-4 ovarian worked out at 4.92 µM; in the experiment on T-47D breast it was 5.7 µM; in the experiment with HOP-92 NSCLC it was 3.72 µM; with IGROV1 ovarian, 4.36 µM; in the experiment with NCI-H226 lung, 4.96 µM; in the experiment on SW-620 colon it was 3.16 µM. The TGI with COLO 205 colon stood at 3.72 µM.

In the case of `COc1ccc2nc3cc([N+](=O)[O-])ccc3c(NCCCCCN(C)C)c2c1`, the GI50 in the experiment with OVCAR-4 ovarian was 140 nM; in the experiment with T-47D breast it was 307 nM; in the experiment on HOP-92 NSCLC, 148 nM; in the experiment with IGROV1 ovarian it was 370 nM; in the experiment with NCI-H226 lung, 0.309 µM; with SW-620 colon, 272 nM. Also, the GI50 in the experiment with COLO 205 colon was 241 nM. Also, the TGI in the experiment on OVCAR-4 ovarian came out at 0.546 µM; in the experiment on T-47D breast, 1.73 µM; with HOP-92 NSCLC it was 0.49 µM; with IGROV1 ovarian, 2.53 µM; in the experiment on NCI-H226 lung, 1.68 µM; in the experiment on SW-620 colon, 3 µM. The compound also returned a TGI in the experiment with COLO 205 colon of 1.68 µM.

With `COc1c(CCC[P+](c2ccccc2)(c2ccccc2)c2ccccc2)cc2c(c1OC)OCO2`, the GI50 in the experiment on OVCAR-4 ovarian was 1590 nM; in the experiment on T-47D breast, 419 nM; with HOP-92 NSCLC it was 507 nM; in the experiment with IGROV1 ovarian, 1020 nM; with NCI-H226 lung, 3.3 µM; in the experiment with SW-620 colon, 1930 nM. Besides, the GI50 in the experiment on COLO 205 colon is 1210 nM. Also, the TGI in the experiment on OVCAR-4 ovarian stood at 12.5 µM; with T-47D breast, 35.3 µM; in the experiment on HOP-92 NSCLC, 4.93 µM; with IGROV1 ovarian, 10.7 µM; with NCI-H226 lung, 42.2 µM; in the experiment on SW-620 colon, 11.1 µM. This compound also gave a TGI with COLO 205 colon of 5.71 µM.

Consider `Cc1ccc(/C=C2\CN(C(=O)OC(C)(C)C)C/C(=C\c3ccc(C)cc3)C2=O)cc1`, for which the GI50 in the experiment on OVCAR-4 ovarian was 3040 nM; in the experiment on HOP-92 NSCLC, 8970 nM; in the experiment with IGROV1 ovarian, 367 nM; in the experiment on SW-620 colon, 437 nM; in the experiment with COLO 205 colon it was 597 nM. In addition, the TGI in the experiment on OVCAR-4 ovarian, with T-47D breast, in the experiment with HOP-92 NSCLC, in the experiment with IGROV1 ovarian, in the experiment on NCI-H226 lung and with SW-620 colon was more than 100 µM throughout. Further, in the experiment on COLO 205 colon, the TGI was determined as 4.08 µM.
